Legend:
RhoA-LARG interaction = target: T1, RhoA-LARG interaction (Homo sapiens, UniProt Q9NZN5); experiment: In vitro complex formation assay, LARG binding to RhoA; settings: for inhibition at 100 µM: read-out: Relative binding inhibition, %
T1 construct: human LARG (residues 765-1,138); made in house; host or cells: E. coli BL21 (DE3) (LARG), E. coli DH5α (GST-RhoA)
T1 sequence (Q9NZN5 765-1138 limits assumed): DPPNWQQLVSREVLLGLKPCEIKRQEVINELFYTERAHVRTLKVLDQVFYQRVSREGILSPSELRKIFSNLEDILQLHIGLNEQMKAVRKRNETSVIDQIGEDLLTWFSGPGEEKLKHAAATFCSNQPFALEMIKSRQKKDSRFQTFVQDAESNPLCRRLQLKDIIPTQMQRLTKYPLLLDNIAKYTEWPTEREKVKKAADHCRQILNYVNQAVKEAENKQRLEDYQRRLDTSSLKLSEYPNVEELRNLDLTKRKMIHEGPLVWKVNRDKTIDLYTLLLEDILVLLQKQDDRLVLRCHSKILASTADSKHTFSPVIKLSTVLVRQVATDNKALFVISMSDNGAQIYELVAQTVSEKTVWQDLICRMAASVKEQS
Protocol: About 1 μg of (His)6-tagged LARG DH-PH was incubated with 1 μg of EDTA-treated GSTRhoA or Cdc42 or GST alone in a binding buffer [20 mM Tris.HCl (pH 7.6), 100 mM NaCl, 1% BSA, 1% Triton X-100, 1 mM MgCl2] containing 15 μL of suspended glutathione-agarose beads. Y16 or other chemicals were added in the incubation buffer at the indicated concentrations. After an incubation at 4° C. for 1 h under constant agitation, the glutathione beads were washed twice with the binding buffer. The amount of (His)6-tagged protein coprecipitated with GST-fusion bound beads was detected by anti-His Western blotting. Similarly, cell lysates containing myc-Tiam1, (His)6-Cdc42, (His)6-TrioN, or (His)6-RhoA were mixed with purified GST-Rac1, GST-Cdc42, GST-mDia, GST-PKN, GSTROCKII, GST-p190GAP, or GST alone, and pairwise association was assessed in the presence or absence of indicated amount of Y16 and/or Rhosin.
The information in FIG. 4 was obtained by the following procedures. (A) Dose-dependent specific inhibition of LARG binding to RhoA by Y16, G04, or G04+Y16 combination at varying concentrations. (B) NIH 3T3 cells were treated with Y16, G04, or G04+Y16 combination at the indicated concentrations for 24 h in serum-free media. Cells were subsequently stimulated with 10% calf serum for 15 min and were subjected to GST-Rhotekin effector domain pull-down assays, and the activities of RhoA were examined. Relative amounts of GTP-bound form of the GTPases were quantified by densitometry measurements and normalized to those of the unstimulated cells. (C) NIH 3T3 cells were treated with Y16, G04, or G04+Y16 combination at the indicated concentrations for 24 h in serum-free media. Cells were subsequently stimulated with 10% calf serum for 15 min and were subjected to GST-Rhotekin and GST-PAK1 effector domain pull-down assays, and the activities of RhoA, Cdc42, and Rac1 were examined. Relative amounts of GTP-bound form of the GTPases were quantified by densitometry measurements and normalized to those of the nontreated cells. (D) NIH 3T3 cells were treated with Y16, G04, or G04+Y16 combination of the indicated concentrations in serum-free DMEM medium prior to stimulation with LPA (20 ng/mL) for 10 min. The cells were stained with rhodamine-phalloidin to reveal F-actin structures.
The inhibitory effects of the analogs were tested in a complex formation assay. (His)6-tagged LARG PH-DH (1 μg) was incubated with GST alone or GST-RhoA conjugated with glutathione agarose beads in the presence or absence of 100 μM indicated compounds. After an incubation at 4° C. for 1 h, the beads-associated (His)6-LARG PH-DH was detected by anti-His Western blotting. The relative inhibition of each analog was normalized to the inhibitory effect of Y16 of the same concentration.

RhoA = RhoA (Homo sapiens, UniProt P61586); settings: reference 26; cited from earlier work
RhoA-GTP [1] = experiment: Endogenous Rho GTPase activity assay, RhoA-GTP in NIH 3T3 cells; format: cell-based; settings: Mus musculus, NIH3T3, serum stimulated, acting alone at 30 μM, read-out: inhibition of RhoA-GTP content
Protocol: The information in FIG. 3 was obtained by the following procedures. (A and B) NIH 3T3 cells were treated with Y16 at the indicated concentrations for 24 h in serum-free media. Cells were subsequently stimulated with 10% calf serum for 15 min and were subjected to GST-Rhotekin or GST-PAK1 effector domain pull-down assays, and the activities of RhoA, Cdc42, and Rac1 were examined. Relative amounts of GTP-bound form of the GTPases were quantified by densitometry measurements and normalized to those of the unstimulated cells. […]
NIH 3T3 cells, MCF7 cells, or HME cells were grown in log phase in a 10-cm dish or a six-well dish, and were starved in serum-free medium in the presence or absence of Y16 at indicated concentrations for 24 h and were subsequently stimulated with 10% calf serum or FBS for 15 min. […] Lysates were clarified, the protein concentrations were normalized, and the GTP-bound RhoA, Rac1, or Cdc42 in the lysates were measured by respective anti-RhoA, Rac1, and Cdc42 Western blotting of the effector domain pull downs.
The information in FIG. 4 was obtained by the following procedures. […] Relative amounts of GTP-bound form of the GTPases were quantified by densitometry measurements and normalized to those of the unstimulated cells. […] Relative amounts of GTP-bound form of the GTPases were quantified by densitometry measurements and normalized to those of the nontreated cells. […]

RhoA-GTP [2] = experiment: RhoA activity in MCF7-derived mammospheres; format: cell-based; settings: alone at 10 μM
Protocol: The information in FIG. 5 was obtained by the following procedures. (A) Y16, G04, or G04+Y16 combination inhibits MCF7 breast cell growth. MCF7 cells were plated at 1.5×10^4/24 well in the presence of Y16, G04, or G04+Y16 combination. Cell numbers were determined at the indicated times. (B) MCF7 cells were subjected migration assays in the presence of Y16, G04, or G04+Y16 combination. (C) The invasive activities were assayed in a Matrigel-coated transwell. (D) Y16, G04, or G04+Y16 combination inhibits RhoA and its downstream signaling activities in MCF7-derived mammospheres. (Upper) MCF7-derived mammospheres were treated with Y16, G04, or G04+Y16 combination at the indicated concentrations. Spheres were collected, and the RhoA activity was examined. Relative amounts of GTP-bound form of RhoA were quantified by densitometry measurements and normalized to those of the untreated cells. (Lower) Western blots are of p-MLC of MCF7-derived mammospheres. Y16, G04, or G04+Y16 combination inhibits MCF-7 cell-derived mammosphere formation. (E) MCF-7 cells were treated with Y16, G04, or G04+Y16 combination at the indicated concentrations for 24 h in serum-free media. MCF7 cells were dissociated to single cells with trypsin and cultured for 10 d at the density of 2×10^4/mL in suspension in the media containing G04 or Y16 at the indicated concentration. Photographs were taken after a 10-d culture. […]

[3] = 100 μM compound, normalized to the inhibitory effect of Y16 of the same concentration

Chain of RhoA (P61586 whole entry): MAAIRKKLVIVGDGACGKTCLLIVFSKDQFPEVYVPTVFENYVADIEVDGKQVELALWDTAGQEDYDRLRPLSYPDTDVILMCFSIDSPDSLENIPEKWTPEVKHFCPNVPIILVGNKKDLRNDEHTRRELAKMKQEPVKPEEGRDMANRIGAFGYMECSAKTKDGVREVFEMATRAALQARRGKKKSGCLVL

inhibition at 100 µM (RhoA-LARG interaction; [3]) | SMILES | other results
27.1% | O=C1NN(c2ccccc2)C(=O)/C1=C/c1ccc(OCc2ccccc2)cc1 [Compound 1] | Relative binding inhibition, % (RhoA-LARG interaction; 100 μM compound, normalized to the inhibitory effect of Y16 of the same concentration, 100 µM): 27.12%
13.8% | COc1cc(/C=C2/C(=O)NN(c3ccccc3)C2=O)cc(Br)c1OCCOc1ccc(C)cc1 [Compound 4] | 
13% | COc1cc(/C=C2/C(=O)NN(c3ccccc3)C2=O)ccc1O [Compound 2] | 
 | N[C@H](Cc1c[nH]c2ccccc12)C(=O)N/N=C/c1ccc2nccnc2c1 [Compound G04, (2R)-2-amino-3-(1Hindol-3-yl)-N′-[(1E)-quinoxalin-6-ylmethylidene]propanehydrazide] | binding affinity to RhoA (RhoA): micromolar; inhibition at 30 µM (RhoA-GTP [1]): ~80%; IC50 (RhoA-LARG interaction; inhibitors alone or combined together, read-out: IC50 for inhibition of RhoA binding to LARG): ~10 µM; inhibition at 10 µM (RhoA-GTP [2]): ~50%
7.34% | O=C1/C(=C\c2ccccc2OCc2ccccc2)CNN1c1ccc(Br)cc1 [Compound 5] | 
6.75% | O=C1NN(c2ccccc2)C(=O)/C1=C\C1=NCc2ccccc21 [Compound 3] | 
